Laboratory results taken from US9745284B2, “2-pyridyloxy-4-ether orexin receptor antagonists” (MERCK SHARP & DOHME CORP., priority 2013, dated 2017).

Tests used:
hOX1R = hOX1R (Homo sapiens, UniProt O43613); assay: FLIPR Ca2+ flux assay, orexin-1 receptor; format: cell-based; conditions: CHO cells expressing orexin-1 receptor; agonist 70 pM Ala-6,12 orexin-A
human orexin-2 receptor = human orexin-2 receptor (Homo sapiens (Human), UniProt O43614); assay: FLIPR Ca2+ flux assay, orexin-2 receptor; format: cell-based; conditions: CHO cells expressing human orexin-2 receptor; agonist 70 pM Ala-6,12 orexin-A; read-out: hOX2R FLIPR IC50
human orexin-2 receptor, sequence (O43614 whole entry): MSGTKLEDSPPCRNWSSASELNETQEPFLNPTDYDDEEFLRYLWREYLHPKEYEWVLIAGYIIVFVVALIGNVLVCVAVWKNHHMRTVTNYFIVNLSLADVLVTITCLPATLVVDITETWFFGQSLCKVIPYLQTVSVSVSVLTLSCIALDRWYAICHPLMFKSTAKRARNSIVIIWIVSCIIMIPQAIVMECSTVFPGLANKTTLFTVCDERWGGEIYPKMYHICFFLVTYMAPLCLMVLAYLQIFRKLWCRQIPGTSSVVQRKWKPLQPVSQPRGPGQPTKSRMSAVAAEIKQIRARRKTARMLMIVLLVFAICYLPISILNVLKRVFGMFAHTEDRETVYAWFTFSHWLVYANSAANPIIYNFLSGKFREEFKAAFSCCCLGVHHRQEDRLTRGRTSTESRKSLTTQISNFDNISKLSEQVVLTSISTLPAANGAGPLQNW
Description: The utility of the compounds in accordance with the present invention as orexin receptor OX1R and/or OX2R antagonists may be readily determined without undue experimentation by methodology well known in the art, including the “FLIPR Ca^2+ Flux Assay” (Okumura et al., Biochem. Biophys. Res. Comm. 280:976-981, 2001). In a typical experiment the OX1 and OX2 receptor antagonistic activity of the compounds of the present invention was determined in accordance with the following experimental method. For intracellular calcium measurements, Chinese hamster ovary (CHO) cells expressing the rat orexin-1 receptor or the human orexin-2 receptor, are grown in Iscove's modified DMEM containing 2 mM L-glutamine, […], 1% hypoxanthine-thymidine supplement, 100 U/ml penicillin, 100 μg/ml streptomycin and 10% heat-inactivated fetal calf serum (FCS). The cells are seeded at 20,000 cells/well into Becton-Dickinson black 384-well clear bottom sterile plates coated with poly-D-lysine. All reagents were from GIBCO-Invitrogen Corp. The seeded plates are incubated overnight at 37° C. and 5% CO2. Ala-6,12 human orexin-A as the agonist is prepared as a 1 mM stock solution in 1% bovine serum albumin (BSA) and diluted in assay buffer (HBSS containing 20 mM HEPES, 0.1% BSA and 2.5 mM probenecid, pH7.4) for use in the assay at a final concentration of 70 pM. Test compounds are prepared as 10 mM stock solution in DMSO, then diluted in 384-well plates, first in DMSO, then assay buffer. On the day of the assay, cells are washed 3 times with 100 μl assay buffer and then incubated for 60 min (37° C., 5% CO2) in 60 μl assay buffer containing 1 μM Fluo-4AM ester, 0.02% pluronic acid, and 1% BSA. The dye loading solution is then aspirated and cells are washed 3 times with 100 μl assay buffer. 30 μl of that same buffer is left in each well. Within the Fluorescent Imaging Plate Reader (FLIPR, Molecular Devices), test compounds are added to the plate in a volume of 25 μl, incubated for 5 min and finally 25 μl of agonist is added. Fluorescence is measured for each well at 1 second intervals for 5 minutes and the height of each fluorescence peak is compared to the height of the fluorescence peak induced by 70 pM Ala-6,12 orexin-A with buffer in place of antagonist. For each antagonist, IC50 value (the concentration of compound needed to inhibit 50% of the agonist response) is determined. Alternatively, compound potency can be assessed by a radioligand binding assay (described in Bergman et. al. Bioorg. Med. Chem. Lett. 2008, 18, 1425-1430) in which the inhibition constant (Ki) is determined in membranes prepared from CHO cells expressing either the OX1 or OX2 receptor. The intrinsic orexin receptor antagonist activity of a compound which may be used in the present invention may be determined by these assays.

SMILES	IC50 (hOX1R)	IC50 (human orexin-2 receptor)
CC(C)Oc1ccnc(O[C@@H]2CC[C@@H](C)N(C(=O)c3cc(F)ccc3-n3nccn3)C2)c1 [Example 26, 2-{[(3R,6R)-1-{[5-fluoro-2-(2H-1,2,3-triazol-2-yl)phenyl]carbonyl}-6-methylpiperidin-3-yl]oxy}-4-(1-methylethoxy) pyridine]	2480 nM	37.2 nM
COc1ccc(C(=O)N2C[C@H](Oc3cc(OC(C)C)ccn3)CC[C@H]2C)c(-n2nccn2)n1 [Example 25, 6-methoxy-3-{[(2R,5R)-2-methyl-5-{[4-(1-methylethoxy)pyridin-2-yl]oxy}piperidin-1-yl]carbonyl}-2-(2H-1,2,3-triazol-2-yl)pyridine]	10000 nM	110 nM
COc1ccc(C(=O)N2C[C@H](Oc3cc(OC(C)C)ccn3)CC[C@H]2C)c(-n2nccn2)c1 [Example 24, 2-{[(3R,6R)-1-{[4-methoxy-2-(2H-1,2,3-triazol-2-yl)phenyl]carbonyl}-6-methylpiperidin-3-yl]oxy}-4-(1-methylethoxy) pyridine]	10000 nM	136 nM
C[C@@H]1CC[C@@H](Oc2cc(OCC(F)(F)F)ccn2)CN1C(=O)c1ccccc1-n1ncnn1 [Example 30, 2-{[(3R,6R)-6-methyl-1-{[2-(2H-tetrazol-2-yl)phenyl]carbonyl}piperidin-3-yl]oxy}-4-(2,2,2-trifluoroethoxy)pyridine]	10000 nM	38 nM
COc1ccnc(O[C@@H]2CC[C@@H](C)N(C(=O)c3ccccc3-n3nccn3)C2)c1C [Example 48, 4-Methoxy-3-methyl-2-{[(3R,6R)-6-methyl-1-{[2-(2H-1,2,3-triazol-2-yl)phenyl]carbonyl}piperidin-3-yl]oxy}pyridine]	568 nM	9.7 nM
C[C@@H]1CC[C@@H](Oc2cc(OCC(F)F)ccn2)CN1C(=O)c1ccccc1-n1nccn1 [Example 27, (2-(2H-1,2,3-triazol-2-yl)phenyl)((2R,5R)-5-((4-(2,2-difluoroethoxy)pyridin-2-yl)oxy)-2-methylpiperidin-1-yl)methanone]	1420 nM	12 nM
CCOc1ccnc(O[C@@H]2CC[C@@H](C)N(C(=O)c3ccsc3-n3nccn3)C2)c1 [Example 62, 4-ethoxy-2-{[(3R,6R)-6-methyl-1-{[2-(2H-1,2,3-triazol-2-yl)thiophen-3-yl]carbonyl}piperidin-3-yl]oxy}pyridine]	1160 nM	22 nM
COc1ccnc(O[C@@H]2CC[C@@H](C)N(C(=O)c3ccccc3C3CC3)C2)c1 [Example 12, 2-({(3R,6R)-1-[(2-cyclopropylphenyl)carbonyl]-6-methylpiperidin-3-yl}oxy)-4-methoxypyridine]	938 nM	11 nM
C[C@@H]1CC[C@@H](Oc2cc(OCC(F)F)ccn2)CN1C(=O)c1ccc(F)cc1-c1ncccn1 [Example 46, 2-(2-{[(2R,5R)-5-{[4-(2,2-difluoroethoxy)pyridin-2-yl]oxy}-2-methylpiperidin-1-yl]carbonyl}-5-fluorophenyl)pyrimidine]	3520 nM	63 nM
C[C@@H]1CC[C@@H](Oc2cc(OCC(F)(F)F)ccn2)CN1C(=O)c1ccccc1-n1nccn1 [Example 28, (2-(2H-1,2,3-triazol-2-yl)phenyl)((2R,5R)-2-methyl-5-((4-(2,2,2-trifluoroethoxy)pyridin-2-yl)oxy)piperidin-1-yl)methanone]	1340 nM	8 nM
CC(C)COc1ccnc(O[C@@H]2CC[C@@H](C)N(C(=O)c3ccccc3-n3nccn3)C2)c1 [Example 42, 4-(2-methylpropoxy)-2-{[(3R,6R)-6-methyl-1-{[2-(2H-1,2,3-triazol-2-yl)phenyl]carbonyl}piperidin-3-yl]oxy}pyridine]	5610 nM	134 nM
C[C@@H]1CC[C@@H](Oc2cc(OCC(F)(F)F)ccn2)CN1C(=O)c1ccsc1-n1nccn1 [Example 63, 2-{[(3R,6R)-6-methyl-1-{[2-(2H-1,2,3-triazol-2-yl)thiophen-3-yl]carbonyl}piperidin-3-yl]oxy}-4-(2,2,2-trifluoroethoxy) pyridine]	8380 nM	55 nM
COc1ccnc(O[C@@H]2CC[C@@H](C)N(C(=O)c3ccccc3-n3nccn3)C2)c1Br [Example 3, 3-bromo-4-methoxy-2-{[(3R,6R)-6-methyl-1-{[2-(2H-1,2,3-triazol-2-yl)phenyl]carbonyl}piperidin-3-yl]oxy}pyridine]	843 nM	14.7 nM
Cc1nc(-c2ccccc2C(=O)N2C[C@H](Oc3cc(OCC(F)F)ccn3)CC[C@H]2C)no1 [Example 38, 4-(2,2-difluoroethoxy)-2-{[(3R,6R)-6-methyl-1-{[2-(5-methyl-1,2,4-oxadiazol-3-yl)phenyl]carbonyl}piperidin-3-yl]oxy}pyridine]	2500 nM	56 nM
COc1ccnc(O[C@@H]2CC[C@@H](C)N(C(=O)c3ccccc3-n3nccn3)C2)c1 [Example 2, 4-methoxy-2-{[(3R,6R)-6-methyl-1-{[2-(2H-1,2,3-triazol-2-yl)phenyl]carbonyl}piperidin-3-yl]oxy}pyridine]	617 nM	12.5 nM
COc1ccnc(O[C@@H]2CC[C@@H](C)N(C(=O)c3ccc(OC)nc3C3CC3)C2)c1 [Example 21, 2-cyclopropyl-6-methoxy-3-({(2R,5R)-5-[(4-methoxypyridin-2-yl)oxy]-2-methylpiperidin-1-yl}carbonyl) pyridine]	8190 nM	38.3 nM
CC(C)Oc1ccnc(O[C@@H]2CC[C@@H](C)N(C(=O)c3ccccc3-n3nccn3)C2)c1 [Example 5, 4-(1-Methylethoxy)-2-{[(3R,6R)-6-methyl-1-{[2-(2H-1,2,3-triazol-2-yl)phenyl]carbonyl}piperidin-3-yl]oxy}pyridine]	669 nM	15.1 nM
CCCOc1ccnc(O[C@@H]2CC[C@@H](C)N(C(=O)c3ccccc3-n3nccn3)C2)c1 [Example 43, 2-{[(3R,6R)-6-methyl-1-{[2-(2H-1,2,3-triazol-2-yl)phenyl]carbonyl}piperidin-3-yl]oxy}-4-propoxypyridine]	2490 nM	38.7 nM
C[C@@H]1CC[C@@H](Oc2cc(OC(F)F)ccn2)CN1C(=O)c1ccsc1-n1nccn1 [Example 54, (2-(2H-1,2,3-Triazol-2-yl)thiophen-3-yl)((2R,5R)-5-((4-(difluoromethoxy)pyridin-2-yl)oxy)-2-methylpiperidin-1-yl)methanone]	1020 nM	11 nM
C[C@@H]1CC[C@@H](Oc2cc(OC(F)F)ccn2)CN1C(=O)c1ccccc1-n1nccn1 [Example 52, (2-(2H-1,2,3-Triazol-2-yl)phenyl)((2R,5R)-5-((4-(difluoromethoxy)pyridin-2-yl)oxy)-2-methylpiperidin-1-yl)methanone]	194 nM	4 nM
C[C@@H]1CC[C@@H](Oc2cc(OCC(F)(F)F)ccn2)CN1C(=O)c1ccsc1-c1ncccn1 [Example 66, 2-(3-{[(2R,5R)-2-methyl-5-{[4-(2,2,2-trifluoroethoxy)pyridin-2-yl]oxy}piperidin-1-yl]carbonyl}thiophen 2-yl)pyrimidine]	2080 nM	26 nM
COc1ccnc(O[C@@H]2CC[C@@H](C)N(C(=O)c3ccccc3-n3ncnn3)C2)c1 [Example 6, 4-Methoxy-2-{[(3R,6R)-6-methyl-1-{[2-(2H-tetrazol-2-yl)phenyl]carbonyl}piperidin-3-yl]oxy}pyridine]	2180 nM	19 nM
C[C@@H]1CC[C@@H](Oc2cc(OCF)ccn2)CN1C(=O)c1ccccc1-n1nccn1 [Example 53, (2-(2H-1,2,3-Triazol-2-yl)phenyl)((2R,5R)-5-((4-(fluoromethoxy)pyridin-2-yl)oxy)-2-methylpiperidin-1-yl)methanone]	490 nM	8 nM
COc1ccnc(O[C@@H]2CC[C@@H](C)N(C(=O)c3ccccc3C(F)(F)F)C2)c1 [Example 13, 4-methoxy-2-{[(3R,6R)-6-methyl-1-{[2-(trifluoromethyl)phenyl]carbonyl}piperidin-3-yl]oxy}pyridine]	1760 nM	56.2 nM
